Results on nine compounds are retold here after paper PMC3908770 (Journal of medicinal chemistry, 2013).

Data set [1] relates to panel of 68 GPCRs, ion channels and transporters. The data set can be described thus: Off-target panel screen. The data set is classed as binding. As to conditions: 10 µM, 68 targets.
Data set [2] concerns Schaffer collateral – CA1 (SC-CA1) synapse. The data set can be described thus: Long-term depression. The conditions noted are these: compound on its own, rat hippocampus.
Data set [3] in a line: Amphetamine induced hyperlocomotion, in vivo model of psychosis. As to conditions: high dose, preliminary.
Data set [4] addresses T1, rat mGlu5 (Rattus norvegicus, UniProt P31424). The conditions noted are these: operational model of allosterism.
The target of data set [5] is T1, rat mGlu5. As to conditions: increasing concentrations.
A further data set addresses mGlu5 S808A (Rattus norvegicus, UniProt P31424, S808A). The data set can be described thus: Progressive fold-shift at mGlu5 point mutant, operational model of allosterism.
Data set [6] deals with T1, rat mGlu5. The conditions noted are these: cited from earlier work.
For data set [7] the following is noted: cited from earlier work; for Seizure activity / liability in vivo: rodents.
For data set [8] the following is noted: cited from earlier work.
For data set [9] the following is noted: Cmax minimum active dose AHL versus Cmax minimum adverse effect dose; cited from earlier work.
The test system of data set [10] is Schaffer collateral – CA1 (SC-CA1) synapse. As to conditions: cited from earlier work.
The subject of the next data set is CA3 pyramidal neurons. As to conditions: hippocampal preparations; prior studies; cited from earlier work.
The target in a further data set is mGlu5 W784A (Rattus norvegicus, UniProt P31424, W784A). Nature of the data set: Progressive fold-shift at mGlu5 point mutant, operational model of allosterism.
mGlu5 W784A, sequence (P31424 21-1203 W784A): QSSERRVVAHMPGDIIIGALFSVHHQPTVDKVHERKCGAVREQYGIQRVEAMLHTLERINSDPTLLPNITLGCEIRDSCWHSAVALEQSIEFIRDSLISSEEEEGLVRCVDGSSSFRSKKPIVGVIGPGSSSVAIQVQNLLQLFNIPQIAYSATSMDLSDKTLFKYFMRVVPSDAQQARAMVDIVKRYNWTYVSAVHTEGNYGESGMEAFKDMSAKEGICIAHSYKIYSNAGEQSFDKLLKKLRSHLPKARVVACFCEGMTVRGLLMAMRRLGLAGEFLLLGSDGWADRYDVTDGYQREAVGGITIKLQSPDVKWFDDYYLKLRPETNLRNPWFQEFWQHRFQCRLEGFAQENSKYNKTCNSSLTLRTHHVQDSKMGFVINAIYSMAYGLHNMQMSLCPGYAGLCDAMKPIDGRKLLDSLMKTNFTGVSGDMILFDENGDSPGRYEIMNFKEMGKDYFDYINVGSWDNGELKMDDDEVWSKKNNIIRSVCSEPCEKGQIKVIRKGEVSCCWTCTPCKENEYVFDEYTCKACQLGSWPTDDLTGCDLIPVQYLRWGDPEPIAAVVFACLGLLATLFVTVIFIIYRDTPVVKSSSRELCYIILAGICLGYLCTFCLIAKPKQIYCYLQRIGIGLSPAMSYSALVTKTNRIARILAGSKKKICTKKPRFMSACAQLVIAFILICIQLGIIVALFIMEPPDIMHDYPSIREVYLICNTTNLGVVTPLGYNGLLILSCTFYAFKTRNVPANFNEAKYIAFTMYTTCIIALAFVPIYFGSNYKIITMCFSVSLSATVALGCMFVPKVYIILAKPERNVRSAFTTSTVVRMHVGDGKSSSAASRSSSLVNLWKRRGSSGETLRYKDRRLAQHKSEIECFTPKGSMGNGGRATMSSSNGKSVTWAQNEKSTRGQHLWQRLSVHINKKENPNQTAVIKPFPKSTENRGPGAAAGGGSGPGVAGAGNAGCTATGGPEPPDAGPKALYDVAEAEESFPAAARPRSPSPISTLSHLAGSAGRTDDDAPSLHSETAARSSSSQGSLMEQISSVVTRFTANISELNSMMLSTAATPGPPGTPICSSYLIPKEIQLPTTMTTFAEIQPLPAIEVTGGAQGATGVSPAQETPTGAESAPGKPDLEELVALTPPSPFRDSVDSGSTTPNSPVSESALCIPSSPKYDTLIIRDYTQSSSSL
The conditions of data set [11]: human; cited from earlier work.
For data set [12] the following is noted: rat; cited from earlier work.

Entries after “also recorded” stand apart in the source; their conditions may differ. Like-named read-outs stand apart in the source and are kept apart here.

T1 sequence (P31424 21-1203): as the sequence (P31424 21-1203 W784A) above, with A764W counted along it
mGlu5 S808A, sequence (P31424 21-1203 S808A): as the sequence (P31424 21-1203 W784A) above, with A764W, S788A counted along it

For the compound `CC1(NC(=O)c2ccc(C#Cc3cccc(F)c3)cn2)COC1` [Compound 38t, 5-((3-Fluorophenyl)ethynyl)-N-(3-methyloxetan-3-yl)picolinamide], the Off target activity entry in data set [1] was “no significant off target activity”. Moreover, in data set [2], the “Induction of LTD at SC-CA1 synapse” value is recorded as “no effect; also recorded: does not induce LTD”. Further, the Behavioral disturbances result in [3] was “no overt behavioral disturbances”. Moreover, the “Reversal of amphetamine induced hyperlocomotion” value in [3] (data not shown) was “robust reversal”. Besides, on rat mGlu5 [4], the “Efficacy cooperativity factor (logβ) between glutamate and modulator” value was found to be 0.34. In addition, the “Predicted affinity (log value)” value at rat mGlu5 [4] (progressive fold-shift) is reported as −6.81. Moreover, the “Inhibition of [^3H]methoxyPEPy binding” value at rat mGlu5 [5] is reported as “complete inhibition”. In addition, the “Effect of S808A mutation” value at mGlu5 S808A is reported as “NAM switch”.

Turning to `O=C(c1ccc(C#Cc2cccc(F)c2)nc1)N1CCC(O)CC1` [Compound 20], the “Allosteric agonism in mGlu5 cell line with low receptor density” value at rat mGlu5 [6] is on record as “devoid of agonism”. Moreover, the “Seizure activity / liability in vivo” value in data set [7] is on record as “did not display a seizure liability”.

For the compound `O=C(N[C@H]1C[C@H](O)C1)c1ccc(C#Cc2cccc(F)c2)cn1` [Compound 22], at rat mGlu5 [6], the “Agonist activity in mGlu5 low-expressing cell line” value is on record as “significant ago-PAM activity”.

Turning to `O=C(NC1CCC1)c1ccc(C#Cc2cccc(F)c2)nc1` [Compound 26], the Plasma protein binding in [8] is reported as 98.9%.

Turning to `O=C1c2ccc(F)cc2CCC2CC[C@@H](c3noc(-c4ccc(F)cn4)n3)CN12` (stereo partly shown) [Compound 5PAM916], the Therapeutic index in data set [9] was 18 fold.

Consider `C[C@@H]1CC[C@H](c2noc(-c3ccc(F)cn3)n2)CN1C(=O)c1ccccc1` [Compound 5PAM523], for which the Therapeutic index in [9] is recorded as 2 fold.

As to `C[C@@H](NC(=O)c1ccc(C#Cc2cccc(F)c2)cn1)C(C)(C)O` [Compound 19, (R)-5-((3-Fluorophenyl)ethynyl)-N-(3-hydroxy-3-methylbutan-2-yl)picolinamide], at rat mGlu5 [6], the “Allosteric agonism in mGlu5 cell line with low receptor density” value is listed as “ago-PAM activity”. The “Induction of LTD at SC-CA1 synapse” value in data set [10] is reported as “induces LTD”. In addition, the “Epileptiform activity in CA3 pyramidal neurons” value with CA3 pyramidal neurons is “induction of epileptiform activity”. Further, in [7], the “Seizure activity / liability in vivo” value is on record as “causes seizure activity”.

`C[C@@H](NC(=O)c1ccc(C#Cc2ccccn2)cn1)C(C)(C)O` [Compound 31i, (R)-N-(3-Hydroxy-3-methylbutan-2-yl)-5-(pyridin-2-ylethynyl)picolinamide]: the “Effect of W784A mutation” value on mGlu5 W784A is on record as “gain in allosteric agonist activity”.

Take `O=C(NC1CCC1)c1ccc(C#Cc2cccc(F)c2)cn1` [Compound 21]: on rat mGlu5 [6], the “Agonist activity in mGlu5 low-expressing cell line” value is given as “demonstrates agonist activity”. In data set [11], the Plasma protein binding is given as over 99 % bound and the fu plasma is under 1%. In addition, in [12], the Plasma protein binding was over 99 % bound and the fu plasma is under 1%. For the same compound, the “Seizure liability in animal models” value in [7] is “possesses a seizure liability”.
